From patent US8546091B2, “AKT phosphorylation at Ser473 as an indicator for taxane-based chemotherapy” (The United States of America, as represented by the …, priority 2009, dated 2013)
Where two headings read alike, the source gives them in different places.

Key:
[1] = test system: node-positive breast cancer; type: in vivo, human
From the text: We designed and conducted a study to correlate Akt phosphorylation with clinical outcome through the primary tumor specimens from the National Surgical Adjuvant Breast and Bowel Project B-28 trial. We tested the hypothesis that phosphorylation of Akt at serine 473 (“pAkt”) predicts a benefit for women with node-positive breast cancer from the sequential addition of paclitaxel after adjuvant doxorubicin plus cyclophosphamide chemotherapy.
Eligible patients signed an approved informed consent which includes tissue collection and research use of collected tissue conforming to federal and institutional guidelines. In this study, the biomarker protocol for the evaluation of Akt phosphorylation in association with disease-free survival and overall survival in patients with node-positive breast cancer treated with either adjuvant doxorubicin plus cyclophosphamide only or followed by paclitaxel was approved by the Institutional Review Boards of the National Cancer institute (Bethesda, Md.) and the National Surgical Adjuvant Breast and Bowel Project (Pittsburgh, Pa.).
HER2 status on the microarray sections were determined by the NSABP central pathology laboratory using PathVision fluorescent in situ hybridization (FISH) assay according to the FDA approved protocol per the manufacturer (Vysis, Downers Grove. Ill.). Data were expressed as the number of HER2 genes per chromosome 17 centromere: tumors with a ratio of […] were classified as HER2-positive, and those with a ratio of <2 were defined as HER2-negative. Estrogen receptor status in tissue microarray sections were also determined by the NSABP central pathology laboratory by immunohistochemistry according to the FDA approved protocol provided by DAKO (PharmDx kit; Carpinteria, Calif.). A positive result (tumor cell nuclear staining) for ER is defined as a total score (ranging from 0, 2-8) of ≧3. The total score is the sum of a proportion score from 0 to 5 and an intensity score of 0 to 3.
Sections were incubated with primary antibody in 1 to 100 dilution for 1 hour at room temperature, and binding of the antibody to its antigenic sites was amplified using Vectastain Elite avidin-biotin peroxidase complex kits (Vector Laboratories, Burlingame, Calif.). The antigen-antibody reaction sites were visualized using 3,3-diaminobenzidine for 7 minutes and, subsequently, sections were counterstained with Mayer's hematoxylin. Breast cancer cell line MDA-MB-468 which expresses pAkt, and a breast cancer specimen known to express pAkt were utilized as positive controls. Negative control was performed using isotype immunoglobulins appropriate to the primary antibodies being used (Zymed Laboratories, South San Francisco, Calif.). The immunostained tissue microarray cores with either cytoplasmic or membranous or nuclear signal were analyzed with the assistance of an Automated Cellular Imaging System (DAKO), blinded to all clinical information, after excluding tissue cores with less than 5% of invasive tumor cells present. The staining intensity and percentage of tumor cells on each tissue core was calculated by the digital imaging system. The staining index ranging from 0 to 62.8 reporting levels of Akt phosphorylation at Ser473 was determined by the percentage multiplied by intensity of staining divided by 100 (intensity X percentage/100) in tumor cells, in which the intensity was subtracted from the average tissue readout of three normal tissue cores. These cores serve as the position markers and tissue negative controls for each array slide.

cancer cells = settings: literature (MacKeigan 2002; Asakuma 2003); cited from earlier work
[2] = test system: node-positive breast cancer; settings: NSABP B-28, Mamounas et al. 2005; paclitaxel after AC vs AC alone; cited from earlier work
[3] = test system: Akt phosphorylation at serine 473; settings: literature (MacKeigan 2002; Asakuma 2003); cited from earlier work

CC(=O)O[C@H]1C(=O)[C@@]2(C)[C@H]([C@H](OC(=O)c3ccccc3)[C@]3(O)C[C@H](OC(=O)[C@H](O)[C@@H](NC(=O)c4ccccc4)c4ccccc4)C(C)=C1C3(C)C)[C@]1(OC(C)=O)CO[C@@H]1C[C@@H]2O [paclitaxel]
hazard ratio for disease-free survival ([1]; 606 patients with pAkt positive cancer, with vs without paclitaxel, FIG. 1B, P=0.027): 0.75 | hazard ratio for disease-free survival ([1]; 975 patients with pAkt-negative cancer, with vs without paclitaxel, FIG. 1A, P=0.44): 1.08 | hazard ratio for overall survival ([1]; 1581 patients with pAkt measurement, follow-up 9.1 years, 95% CI 0.79-1.15, P=0.63): 0.96 | hazard ratio for disease-free survival ([1]; 1581 patients with pAkt measurement, follow-up 9.1 years, 95% CI 0.81-1.10, P=0.46): 0.94 | improvement in disease-free survival ([1]; entire B-28 population with pAkt-Ser473 measurements, positive or negative, approximate 10 years of follow-up): 6% | hazard ratio for overall survival ([1]; entire B-28 population, approximate 10 years of follow-up, addition of paclitaxel to AC vs AC, 95% CI 0.81-1.06, P=0.25): 0.92 | hazard ratio for disease-free survival ([1]; entire B-28 population, approximate 10 years of follow-up, sequential addition of paclitaxel to AC vs AC, 95% CI 0.79 to 0.99, P=0.034): 0.89 | adjusted hazard ratio for disease-free survival ([1]; pAkt negative cancer, multivariate proportional-hazards model, FIG. 1C, P=0.81): 1.02 | adjusted hazard ratio for disease-free survival ([1]; pAkt positive breast cancer, multivariate proportional-hazards model, FIG. 1C, P=0.02): 0.74 | hazard ratio for overall survival ([1]; pAkt-negative cancer, P=0.74): 1.04 | adjusted hazard ratio for disease-free survival ([1]; pAkt-negative, HER2-negative tumors, FIG. 3C, P=0.36): 1.12 | adjusted hazard ratio for disease-free survival ([1]; pAkt-negative, HER2-positive tumors, FIG. 3A, P=0.88): 0.96 | adjusted hazard ratio for disease-free survival ([1]; pAkt-negative, estrogen-receptor positive tumors, FIG. 2A, P=0.64): 1.06 | adjusted hazard ratio for disease-free survival ([1]; pAkt-negative, estrogen-receptor-negative tumors, FIG. 2C, P=0.79): 1.04 | improvement in disease-free survival ([1]; pAkt-positive breast cancer, sequential addition of paclitaxel): 26% | hazard ratio for overall survival ([1]; pAkt-positive cancer, P=0.226): 0.83 | adjusted hazard ratio for disease-free survival ([1]; pAkt-positive, HER2-negative tumors, FIG. 3D, P=0.03): 0.70 | adjusted hazard ratio for disease-free survival ([1]; pAkt-positive, HER2-positive tumors, FIG. 3B, P=0.28): 0.72 | adjusted hazard ratio for disease-free survival ([1]; pAkt-positive, estrogen receptor-negative tumors, FIG. 2D, P=0.052): 0.66 | adjusted hazard ratio for disease-free survival ([1]; pAkt-positive, estrogen receptor-positive tumors, FIG. 2B, P=0.24): 0.82 | effect on survival of cancer cells (cancer cells): reduces the survival cancer cells | effect on disease-free and overall survival [2]: significantly improve disease-free survival but not overall survival | effect on Akt phosphorylation at serine 473 [3]: inhibits Akt phosphorylation at serine 473
